According to ChEMBL document CHEMBL1177851, “Some new biologically active metal-based sulfonamide” (Eur J Med Chem, 2010):
In brackets after ≈: the same amount, converted by molar mass.

Tests used:
Aspergillus flavus = experiment: Antifungal activity against Aspergillus flavus at 200 ug/ml after 7 days; format: functional; conditions: 168 h
Staphylococcus aureus = experiment: Antibacterial activity against Staphylococcus aureus at 50 ug/ml after 24 hrs by agar-well diffusion assay; format: functional; conditions: read-out: IZ
Pseudomonas aeruginosa = experiment: Antibacterial activity against Pseudomonas aeruginosa at 50 ug/ml after 24 hrs by agar-well diffusion assay; format: functional; conditions: read-out: IZ
Salmonella enterica = experiment: Antibacterial activity against Salmonella typhi at 50 ug/ml after 24 hrs by agar-well diffusion assay; format: functional, Salmonella enterica subsp. enterica serovar Typhi; conditions: read-out: IZ
Candida albicans = experiment: Antifungal activity against Candida albicans at 200 ug/ml after 7 days; format: functional; conditions: 168 h
Fusarium solani = experiment: Antifungal activity against Fusarium solani at 200 ug/ml after 7 days; format: functional; conditions: 168 h
[1] = Cytotoxicity against Artemia salina leach eggs; conditions: Egg, read-out: LD50 (the source's name)
Escherichia coli = experiment: Antibacterial activity against Escherichia coli at 50 ug/ml after 24 hrs by agar-well diffusion assay; format: functional; conditions: read-out: IZ
Nakaseomyces glabratus = experiment: Antifungal activity against Candida glabrata at 200 ug/ml after 7 days; format: functional; conditions: 168 h
Microsporum canis = experiment: Antifungal activity against Microsporum canis at 200 ug/ml after 7 days; format: functional; conditions: 168 h
Shigella flexneri = experiment: Antibacterial activity against Shigella flexneri at 50 ug/ml after 24 hrs by agar-well diffusion assay; format: functional; conditions: read-out: IZ
Bacillus subtilis = experiment: Antibacterial activity against Bacillus subtilis at 50 ug/ml after 24 hrs by agar-well diffusion assay; format: functional; conditions: read-out: IZ
Trichophyton longifusum = experiment: Antifungal activity against Trichophyton longifusum at 200 ug/ml after 7 days; format: functional; conditions: 168 h

O=S(=O)(Nc1ncccn1)c1ccc(/N=C/c2cc(Br)ccc2O)cc1
inhibition at 200 µg/mL (Aspergillus flavus): 78%
zone of inhibition at 50 µg/mL (Staphylococcus aureus): 16 mm
zone of inhibition at 50 µg/mL (Pseudomonas aeruginosa): 12 mm
zone of inhibition at 50 µg/mL (Salmonella enterica): 13 mm
inhibition at 200 µg/mL (Candida albicans): 34%
inhibition at 200 µg/mL (Fusarium solani): 48%
LC50 [1]: > 3.16 mM
zone of inhibition at 50 µg/mL (Escherichia coli): 17 mm
inhibition at 200 µg/mL (Nakaseomyces glabratus): 80%
inhibition at 200 µg/mL (Microsporum canis): 0%
zone of inhibition at 50 µg/mL (Shigella flexneri): 8 mm
zone of inhibition at 50 µg/mL (Bacillus subtilis): 15 mm
inhibition at 200 µg/mL (Trichophyton longifusum): 81%

Cc1cc(C)nc(NS(=O)(=O)c2ccc(/N=C/c3cc(Br)ccc3O)cc2)n1
inhibition at 200 µg/mL (Aspergillus flavus): 38%
zone of inhibition at 50 µg/mL (Staphylococcus aureus): 17 mm
zone of inhibition at 50 µg/mL (Pseudomonas aeruginosa): 13 mm
zone of inhibition at 50 µg/mL (Salmonella enterica): 11 mm
inhibition at 200 µg/mL (Candida albicans): 0%
inhibition at 200 µg/mL (Fusarium solani): 20%
LC50 [1]: > 3.16 mM
zone of inhibition at 50 µg/mL (Escherichia coli): 18 mm
inhibition at 200 µg/mL (Nakaseomyces glabratus): 0%
inhibition at 200 µg/mL (Microsporum canis): 73%
zone of inhibition at 50 µg/mL (Shigella flexneri): 6 mm
zone of inhibition at 50 µg/mL (Bacillus subtilis): 15 mm
inhibition at 200 µg/mL (Trichophyton longifusum): 80%

C[C@@H]1[C@H](O)[C@@H](C)/C=C/C=C/C=C/C=C/C=C/C=C/C=C/[C@H](O[C@@H]2O[C@H](C)[C@@H](O)[C@H](N)[C@@H]2O)C[C@@H]2O[C@](O)(C[C@@H](O)C[C@@H](O)[C@H](O)CC[C@@H](O)C[C@@H](O)CC(=O)O[C@H]1C)C[C@H](O)[C@H]2C(=O)O [AMPHOTERICIN B]
MIC (Aspergillus flavus): 20 µg/mL (≈ 21.6 µM)

C[C@@H](O)[C@H]1C(=O)N2C(C(=O)O)=C(SCCNC=N)C[C@H]12 [IMIPENEM ANHYDROUS]
zone of inhibition at 50 µg/mL (Staphylococcus aureus): 26 mm
zone of inhibition at 50 µg/mL (Pseudomonas aeruginosa): 24 mm
zone of inhibition at 50 µg/mL (Salmonella enterica): 25 mm
zone of inhibition at 50 µg/mL (Escherichia coli): 24 mm
zone of inhibition at 50 µg/mL (Shigella flexneri): 20 mm
zone of inhibition at 50 µg/mL (Bacillus subtilis): 26 mm

Clc1ccc(COC(Cn2ccnc2)c2ccc(Cl)cc2Cl)c(Cl)c1 (stereo not drawn) [MICONAZOLE]
MIC (Candida albicans): 111 µg/mL (≈ 266 µM)
MIC (Fusarium solani): 111 µg/mL (≈ 266 µM)
MIC (Nakaseomyces glabratus): 73.2 µg/mL (≈ 176 µM)
MIC (Microsporum canis): 98.4 µg/mL (≈ 236 µM)
MIC (Trichophyton longifusum): 70 µg/mL (≈ 168 µM)
